Assays:
[1] = tested on: KM12C (RONΔ160); test: Cell death-inducing ability, trypan blue exclusion, KM12C; format: cell-based, human; conditions: 48 hours
Method: The cell death-inducing ability of Example 18 and Comparative Example 1 was measured in KM12C with RON mutant (Δ160), a cetuximab-resistant cell line, and Colo320HSR cell line, a cell line not expressing RON. The two colon cancer cell lines were seeded, respectively, onto 60-mm plates at 2×10^5 cells. Then, after 24 hours, while performing medium exchange, the cells were subjected to treatment with the sample compounds at respective concentrations (1 μM, 5 μM) for 48 hours. After 48 hours, the cells and cell suspensions were collected (1,500 rpm, 3 minutes), and live cells and dead cells were quantitated (n=2) through trypan blue (15250-061, Gibco) exclusion assay.

[2] = tested on: active RON (pTyr-RON); test: Western blotting of active RON in KM12C; format: cell-based, human
Method: The cell killing efficacy of Example 18 and Comparative Example 1 was analyzed, and then the cells were collected. Western blotting was performed to identify inhibitory capacity of Example 18 on active RON. RIPA Lysis Buffer (T&I) was added to the respective cells so as to achieve lysis. Then, BCA kit (Pierce) was used to quantify proteins. The proteins were loaded onto 6% SDS-polyacrylamide with a protein concentration of 40 μg, and electrophoresis was performed at 125 V.
Subsequently, the proteins were reacted with primary antibody (active RON, beta actin), which was diluted 1:1,000 in 5% non-fat skim milk-TBST solution, at 4° C. for 24 hours or 48 hours. Then, washing with TBST was performed three times. The resultant was reacted with anti-rabbit and anti-mouse IgG conjugated horseradish peroxidase (HRP) secondary antibody, which was diluted at 1:1,000, at room temperature for 2 hours. Then, washing with TBST was washed three times. Subsequently, the membrane was treated with the ECL solution (GE Healthcare), and developed by exposure to an X-ray film. Then, the bands were checked.

[3] = tested on: colon cancer patient-derived cancer tissue (RON mutant: Δ160); test: Efficacy in animal model transplanted with colon cancer patient tissue, 50 mpk; format: in vivo, BALB/c nude mice; conditions: 50 mpk oral, daily for 4 weeks
Method: 5-week-old female BALB/c nude mice were purchased and acclimatized for 1 week. Then, colon cancer patient-derived cancer tissue was transplanted into the right dorsal side of the mice. Example 18 was orally administered when the tumor reached a size of about 100 mm^3. The drug was administered once a day for 4 weeks, and tumor size and body weight were measured twice a week to perform comparative analysis. After completion of the drug administration, the experimental animals were euthanized, and then the tumors were extracted and weighed to perform comparative analysis.
As a result, it was identifiable that tumor growth is inhibited in a case where Example 18 is administered to an animal model (RON mutant: Δ160) into which tumor cells in colon cancer patients have been transplanted. The drug was orally administered on a daily basis, and the dose used was 50 mpk. As a result of drug administration for 4 weeks, it was identified that tumor growth is inhibited by 80% or more (FIG. 18). In addition, after completion of the drug administration, the tumor tissues were extracted and weighed to perform comparative analysis. […] The lower pictures of FIG. 19 show tumors extracted from representative individuals of the respective groups.

[4] = tested on: colon cancer patient-derived cell line expressing active RON; test: Cell death in colon cancer patient-derived cell line expressing active RON (immunofluorescence); format: cell-based, human; conditions: 5 ug, 48 hours, KRAS normal
Method: (§1) The following condition and methods were used to perform the present experiment. […] Then, the respective cell lines were seeded at 5×10^5 cells onto 24-well plates, in which one sterile 12 mmΦ microscope cover glass was placed on each well, and incubated. The respective colon cancer patient-derived cell lines under incubation were subjected to treatment with Example 18 and Comparative Example 1, respectively, at 5 ug, and then incubated for 48 hours. Each incubated plate was washed twice with PBS, and then fixed with 100% Me-OH at room temperature for 5 minutes. The Me-OH was removed, and washing with PBS was performed three times for 5 minutes each. Then, 100 ul of 0.1% Triton X-100 (in PBS) was dispensed thereinto and permeabilization was allowed to occur for 5 minutes. Washing with PBS was performed three times for 5 minutes each, and then PBS was added thereto to prevent drying. Parafilm was attached to the 24-well plate cover, and then PBS-T (PBS+0.1% Tween 20) containing 3% BSA was dropped by 20 μl onto the parafilm. […] Then, washing with PBS-T (PBS+0.1% Tween 20) was performed twice, and a fluorescence microscope was used to identify the staining. […] Then, the cover glass was placed thereon, and a fluorescence microscope was used to take a fluorescence image.

[5] = tested on: colon cancer patient-derived cell line in which RON is not expressed; test: Cell death in colon cancer patient-derived cell line, active RON negative (immunofluorescence); format: cell-based, human; conditions: 5 ug, 48 hours, KRAS normal
Method: as §1

## CCOc1ccn(-c2ccc(F)cc2)c(=O)c1C(=O)Nc1ccc(Oc2ccnc3cc(-c4ccc(CN5CCOCC5)cn4)sc23)c(F)c1.Cl [Example 18, 4-ethoxy-N-[3-fluoro-4-({2-[5-(morpholinomethyl)pyridin-2-yl]thieno[3,2-b]pyridine-7-yl}oxy)phenyl]-1-(4-fluorophenyl)-2-oxo-1,2-dihydropyridine-3-carboxamide hydrochloride]
[1]; 1 μM
  Cell death, KM12C (RONΔ160): 29.0
[1]; 5 μM
  Cell death, KM12C (RONΔ160): 35.2
[2]
  expression of active RON (Western blotting): decreases
[3]
  tumor growth inhibition (extracted tumor weight) compared with the vehicle: about 83%
  tumor growth inhibition (tumor size): ≥ 80%
[4]
  cell death-inducing efficacy (cleaved caspase 3 immunofluorescence): exhibits cell death-inducing efficacy
[5]
  reactivity to drug treatment (cell death): no reactivity
